Our source for the Emax values is paper PMC5908784, “Extracellular loops 2 and 3 of the calcitonin receptor selectively modify agonist binding and efficacy” (Biochemical Pharmacology, 2018).

Holding throughout (type): cell-based
One experiment concerns the target T1, hCTR T295A (Homo sapiens, UniProt P30988, T295A).
T1 construct: c-Myc (N); expressed in transfected cells
T1 sequence (P30988 25-474 T295A): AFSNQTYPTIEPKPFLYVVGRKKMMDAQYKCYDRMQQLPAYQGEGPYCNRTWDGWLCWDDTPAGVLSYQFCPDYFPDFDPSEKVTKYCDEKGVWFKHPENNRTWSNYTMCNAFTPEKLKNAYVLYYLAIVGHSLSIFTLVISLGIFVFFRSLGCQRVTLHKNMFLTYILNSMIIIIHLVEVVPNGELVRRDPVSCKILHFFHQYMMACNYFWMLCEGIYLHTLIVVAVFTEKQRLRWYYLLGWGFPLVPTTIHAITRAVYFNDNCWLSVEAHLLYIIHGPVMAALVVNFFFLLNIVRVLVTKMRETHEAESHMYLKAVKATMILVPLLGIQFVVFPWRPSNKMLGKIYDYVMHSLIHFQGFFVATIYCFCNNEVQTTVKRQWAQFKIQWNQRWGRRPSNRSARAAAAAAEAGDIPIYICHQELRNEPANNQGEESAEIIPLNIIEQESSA
As to the kind of experiment: cAMP accumulation. To be noted: cAMP maximal response, mean ± S.E.M., SEM. The procedure, abridged: (§1)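 Cells expressing the receptor mutant were seeded overnight, then stimulated with increasing ligand concentrations for 30 min in the presence of IBMX. After ethanol extraction and drying at room temperature, cAMP was measured and normalized to the 100 μM forskolin response. EC50 and Emax came from 3-parameter logistic fits.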

In the next experiment the target is T2, hCTR D373A (Homo sapiens, UniProt P30988, D373A).
T2 construct: c-Myc (N); expressed in transfected cells
T2 sequence (P30988 25-474 D373A): T1 sequence (P30988 25-474 T295A) with A271T, D349A
In words: cAMP accumulation. Conditions: cAMP maximal response, mean ± S.E.M., SEM. The essentials:
as §1

The target of a further experiment is T3, hCTR E294A (Homo sapiens, UniProt P30988, E294A).
T3 construct: c-Myc (N); expressed in transfected cells
T3 sequence (P30988 25-474 E294A): T1 sequence (P30988 25-474 T295A) with E270A, A271T
In words: ERK1/2 phosphorylation. Conditions: read-out: Emax (% WT). As to the method:
(§2) Cells (2.5 × 10^4 cells/well) were seeded into 96-well culture plates and incubated overnight. […] Data were normalized to the maximal response elicited by 10% FBS determined at 6 min.
(§3) Data were corrected for radioligand occupancy using the Cheng-Prusoff equation in Prism; as such data are reported as pKi. Emax and EC50 were estimated from concentration-response curves using with a 3-parameter logistic equation in Prism (v7). These values are a composite of functional affinity, efficacy and stimulus response coupling. […] Significance was accepted at P < 0.05.

The next experiment concerns the target T4, hCTR Y299A (Homo sapiens, UniProt P30988, Y299A).
T4 construct: c-Myc (N); expressed in transfected cells
T4 sequence (P30988 25-474 Y299A): T1 sequence (P30988 25-474 T295A) with A271T, Y275A
In words: ERK1/2 phosphorylation. Conditions: pERK maximal response, CV1-FlpIn cells, mean ± S.E.M. As to the method:
as §2, §3

The target of a further experiment is T5, hCTR N365A (Homo sapiens, UniProt P30988, N365A).
T5 construct: c-Myc (N); expressed in transfected cells
T5 sequence (P30988 25-474 N365A): T1 sequence (P30988 25-474 T295A) with A271T, N341A
In words: ERK1/2 phosphorylation. To be noted: pERK maximal response, CV1-FlpIn cells, mean ± S.E.M. The procedure: as §2, §3

Where a chain is given by its changes, count along the chain named.

On to `CC(C)C[C@H](NC(=O)[C@H](CCCCN)NC(=O)CNC(=O)[C@H](CC(C)C)NC(=O)[C@@H](NC(=O)[C@@H]1CSSC[C@H](N)C(=O)N[C@@H](CO)C(=O)N[C@@H](CC(N)=O)C(=O)N[C@@H](CC(C)C)C(=O)N[C@@H](CO)C(=O)N[C@@H]([C@@H](C)O)C(=O)N1)C(C)C)C(=O)N[C@@H](CO)C(=O)N[C@@H](CCC(N)=O)C(=O)N[C@@H](CCC(=O)O)C(=O)N[C@@H](CC(C)C)C(=O)N[C@@H](Cc1c[nH]cn1)C(=O)N[C@@H](CCCCN)C(=O)N[C@@H](CC(C)C)C(=O)N[C@@H](CCC(N)=O)C(=O)N[C@H](C(=O)N[C@@H](Cc1ccc(O)cc1)C(=O)N1CCC[C@H]1C(=O)N[C@@H](CCCNC(=N)N)C(=O)N[C@H](C(=O)N[C@@H](CC(N)=O)C(=O)N[C@H](C(=O)NCC(=O)N[C@@H](CO)C(=O)NCC(=O)N[C@H](C(=O)N1CCC[C@H]1C(N)=O)[C@@H](C)O)[C@@H](C)O)[C@@H](C)O)[C@@H](C)O` [sCT], for which the Emax on hCTR T295A stood at 138 ± 13%; on hCTR D373A it was 116 ± 8%; at hCTR E294A, 126 ± 7%; on hCTR Y299A, 58 ± 4%; at hCTR N365A it was 84 ± 3%.
